According to US20080227768A1, “Crystal of 1-Methylcarbapenem Compound” (priority 2005, published 2008):
Like-named read-outs stand apart in the source and are kept apart here.

Tests used:
[1] = Water Solubility Test (time to completely dissolve); assay type: physicochemical; details: for Dissolving time: 300 mg of crystals sized through 150 μm mesh, 10 ml of water, 25° C., complete dissolution
Text: The crystalline form of the present invention obtained according to Example 2 and a crystalline form described in Japanese Patent Application Publication (Kokai) No. 2001-72681 ((1R,5S,6S)-6-[(1R)-1-hydroxyethyl]-1-methyl-2-[(2S,4S)-2-[(3S)-3-(2-guanidinoacetylamino)pyrrolidin-1-ylcarbonyl]-1-methylpyrrolidin-4-ylthio]-1-carbepen-2-em-3-carboxylic acid, referred to as Crystalline form 2) were sized by passing through a 150 μm mesh filter followed by measurement of the amount of time required for 300 mg of the crystals to completely dissolve in 10 ml of water at 25° C.

[2] = tested on: Gram-negative bacteria and Gram-positive bacteria; details: cited from earlier work
[3] = Storage Stability Test-1 (sealed brown glass bottle, 25° C., purity by HPLC); assay type: physicochemical; details: HPLC peak area ratio
Protocol: The crystalline form of the present invention obtained according to Example 2 and a crystalline form described in Japanese Patent Application Publication (Kokai) No. 2001-72681 ((1R,5S,6S)-6-[(1R)-1-hydroxyethyl]-1-methyl-2-[(2S,4S)-2-[(3S)-3-(2-guanidinoacetylamino)pyrrolidin-1-ylcarbonyl]-1-methylpyrrolidin-4-ylthio]-1-carbepen-2-em-3-carboxylic acid·monoethanolate·trihydrate, referred to as Crystalline form 1) were sealed in a brown glass bottle at a constant temperature of 25° C. followed by measurement of purity at the start of the test, one month later and two months later using high performance liquid chromatography (column: Develosil RPAQUEOUS 4.6×150 mm, column temperature: 60° C., developer flow rate: 1.0 ml/min, developer: 0.02 M aqueous potassium dihydrogen phosphate solution/acetonitrile=95/5 to 50/50). The resulting purities were represented as the ratios of the areas of the chromatographic peaks.

[4] = Storage Stability Test-2 (sealed brown glass bottle, 40° C., purity by HPLC); assay type: physicochemical; details: HPLC peak area ratio
Protocol: The crystalline form of the present invention obtained according to Example 2 and Crystalline form 1 were sealed in a brown glass bottle at a constant temperature of 40° C. followed by measurement of purity at the start of the test and one month later using high performance liquid chromatography (column: Develosil RPAQUEOUS 4.6×150 mm, column temperature: 60° C., developer flow rate: 1.0 ml/min, developer: 0.02 M aqueous potassium dihydrogen phosphate solution/acetonitrile=95/5 to 50/50). The resulting purities were represented as the ratios of the areas of the chromatographic peaks.

Compound	Dissolving time [1] [min]	antibacterial activity ([2]; from Patent Documents 1 and 2, listed as formula (I))	antibacterial activity ([2]; from Patent Documents 1 and 2)	Purity (%) 1 month later [3] [%]	Purity (%) 2 months later [3] [%]	Purity (%) Start of test [3] [%]	Purity 1 month later (%) [4] [%]	Purity at start of test (%) [4] [%]	solubility in water (in words) ([1]; compared with the known crystalline form)
C[C@@H](O)[C@H]1C(=O)N2C(C(=O)O)=C(S[C@H]3C[C@@H](C(=O)N4CC[C@H](NC(=O)CNC(=N)N)C4)N(C)C3)[C@H](C)[C@H]12 [Crystalline form 2, (1R,5S,6S)-6-[(1R)-1-hydroxyethyl]-1-methyl-2-[(2S,4S)-2-[(3S)-3-(2-guanidinoacetylamino)pyrrolidin-1-ylcarbonyl]-1-methylpyrrolidin-4-ylthio]-1-carbepen-2-em-3-carboxylic acid, reference compound]	8.0	–	–	–	–	–	–	–	–
C[C@@H](O)[C@H]1C(=O)N2C(C(=O)O)=C(S[C@H]3C[C@@H](C(=O)N4CC[C@H](NC(=O)CNC(=N)N)C4)N(C)C3)[C@H](C)[C@H]12 [compound (I), (1R,5S,6S)-6-[(1R)-1-hydroxyethyl]-1-methyl-2-[(2S,4S)-2-[(3S)-3-(2-guanidinoacetylamino)pyrrolidin-1-ylcarbonyl]-1-methylpyrrolidin-4-ylthio]-1-carbapen-2-em-3-carboxylic acid]	–	potent antibacterial activity	excellent antibacterial activity	–	–	–	–	–	–
C[C@@H](O)[C@H]1C(=O)N2C(C(=O)O)=C(S[C@H]3C[C@@H](C(=O)N4CC[C@H](NC(=O)CNC(=N)N)C4)N(C)C3)[C@H](C)[C@H]12 (stereo in doubt) [Crystalline form of present invention, (1R,5S,6S)-6-[(1R)-1-Hydroxyethyl]-1-methyl-2-[(2S,4S)-2-[(3S)-3-(2-guanidinoacetylamino)pyrrolidin-1-ylcarbonyl]-1-methylpyrrolidin-4-ylthio]-1-carbapen-2-em-3-carboxylic acid acetonate]	2.5	–	–	98.43	98.40	98.35	98.35	98.35	superior to that of the known crystalline form
CCO.C[C@@H](O)[C@H]1C(=O)N2C(C(=O)O)=C(S[C@H]3C[C@@H](C(=O)N4CC[C@H](NC(=O)CNC(=N)N)C4)N(C)C3)[C@H](C)[C@H]12.O.O.O [Crystalline form 1, (1R,5S,6S)-6-[(1R)-1-hydroxyethyl]-1-methyl-2-[(2S,4S)-2-[(3S)-3-(2-guanidinoacetylamino)pyrrolidin-1-ylcarbonyl]-1-methylpyrrolidin-4-ylthio]-1-carbepen-2-em-3-carboxylic acid·monoethanolate·trihydrate, reference compound]	–	–	–	98.35	98.06	98.45	98.26	98.45	–
